Patent US9833393B2, “Method and compositions for treating skin” (ELC Management LLC, priority 2015, dated 2017)

System: per1 gene expression
Experiment: per1 gene expression activity, per1-luciferase reporter plasmid in transfected keratinocytes
Assay type: cell-based, human
Settings: NHEK, 16 hours incubation, luminescence
Procedure: Normal human epidermal keratinocytes (NHEK) were diluted in EpiLife Media MEP1500CA with supplement S001-5 added (Gibco, Cascade Biologics, Invitrogen) to form a concentration of 3×10^4 and plated onto a black walled 96 well microtiter plate by adding 100 μl in each well. The plate was incubated for 3 hours at 37° C. in 5% CO2. The media was removed and remaining adhered cells rinsed with EpiLife Media MEP1500CA, supplement free. A plasmid solution was prepared by diluting Tris-EDTA pH 8.0 buffer with plasmid pGL4.11 (DNA 2.0, Carlsbad, Calif.) to form a 1 mg/ml solution. This plasmid contained a per1 gene sequence and a luciferase reporter gene sequence. A transfection mixture was prepared by diluting EpiLife Media MEP1500CA, supplement free, to form a solution with 0.31 μg/ml of plasmid (obtained by adding appropriate amount of plasmid solution prepared above), 1.28% Plus™ Reagent (Catalog No. 11514-015, Invitrogen, Carlsbad, Calif.), and 3.22% Lipofectamine™ Transfection Reagent (Catalog No. 18324-012, Invitrogen, Carlsbad, Calif.). Transfection mixture, […] to each well and the plate incubated for 4 hours at 37° C. in 5% CO2. Then 80 μl of EpiLife Media MEP1500CA with supplement S001-5 was added to the well containing the control (media alone), the transfection mixture control (transfection mixture without any active ingredient). Test wells and transfection control wells. To the test wells 80 μl of test material solution (test material diluted in EpiLife Media MEP1500CA with supplement S001-5) was added. The wells were incubated for 16 hours at 37° C. in 5% CO2. Immediately prior to reading, Bright-Glo™ (Pro-Mega, Madison Wis.) was added to each well plate in the same volume as is currently in the well (e.g. a 1:1 dilution). Luminescence was measured in an LMax™ Microplate Luminometer (Molecular Devices, Sunnyvale, Calif.).

## COc1ccc2[nH]cc(CCNC(C)=O)c2c1 [melatonin]
100 uM concentration
  increase in per1: 39.2%

## alpha bisabolol
0.01% concentration
  increase in per1: 0%
0.05% concentration
  increase in per1: 0%
0.1% concentration
  increase in per1: 0%
